Results: patent US9617222B1, “Alkynyl indazole derivative and use thereof” (SENJU PHARMACEUTICAL CO., LTD., priority 2014, dated 2017)
Converted amounts (≈) assume the structure as drawn.

Assays:
[1] = Drug penetrating test to retina/choroid after instillation; assay type: in vivo, rabbit (Japanese white rabbit); conditions: rabbit, 2 hours after instillation; for concentration at 2 h: Japanese white, retina/choroid, topical, 50 μL/eye of 0.25% suspension, 0.25% suspension eye drop 50 μL/eye, average ± standard deviation; for drug penetrating concentration in the retina/choroid compared with compound B: p≦0.05
Protocol: For the compounds 8, 27 and B produced in Examples, drug penetrating concentrations to retina/choroid tissues after instillation were measured. […] In order to measure the drug concentration in the retina/choroid tissues, the eye drop was administered to rabbits (Japanese white rabbit) at 50 μL/eye, the rabbits were euthanized 2 hours after instillation, and the eyeballs were excised. The excised eyeballs were frozen with liquid nitrogen, split into two parts along the equatorial plane, and then the retina/choroid tissues were sampled from the posterior eye segment. In order to extract the compound from the sampled tissues, the tissues were finely cut in methanol to prepare a lysate, and subsequently the lysate was centrifuged to collect the supernatant. To the extracted solution of the compound from the supernatant, an equivalent amount of ultrapure water was added, and the solution was filtered through a membrane filter (0.22 μm), and the filtrate was designated as a final measurement solution. The drug concentration in the filtrate was analyzed by liquid chromatography mass spectrometry (LC/MS/MS), and the compound concentration in the retina/choroid tissues was calculated from the peak area value obtained by an external standard method. Analysis conditions of LC/MS/MS are as below. For the compound concentration in the retina/choroid, null hypothesis test was carried out using JMP (registered trademark) (SAS Institute Inc.), the outlier was excluded, and then the average value±standard deviation was used.

[2] = Solubility test in 0.1% phosphate buffer solution (pH 7.0); assay type: physicochemical; conditions: for solubility: aqueous buffer, thermodynamic from solid, 0.1% phosphate buffer solution (pH 7.0), room temperature overnight
Protocol: The mixture was subjected to ultrasonic irradiation for 30 seconds, and then shaken at room temperature overnight. The resulting suspension was left at rest at room temperature for 30 minutes, then filtered through a chromatography disc (0.20 μm) to prepare a sample solution. The sample solution and the standard solution were analyzed by LC-MS (product name: ACQUITY UPLC H-CLASS SYSTEM and Xevo TQ-S, produced by Nihon Waters K.K.), and a solubility was calculated from the obtained peak area value by an external standard method.

[3] = tested on: Human Retinal Microvascular Endothelial (hRMVE) Cells (hRMVEC); assay: Growth inhibition of hRMVE cells under VEGF stimulation (MTT assay); assay type: cell-based; conditions: recombinant human VEGF, 48 hours, read-out: Cell Growth Inhibition Activity

| SMILES | concentration at 2 h [1] | drug penetrating concentration in the retina/choroid compared with compound B [1] | solubility [2] | IC50 [3] | solubility in aqueous solution (in words) ([2]; aqueous solution) | photostability in solution (in words) |
| --- | --- | --- | --- | --- | --- | --- |
| CNC(=O)c1ccccc1Sc1ccc2c(C#Cc3ccc(NCCOCCOCCOC)cc3)n[nH]c2c1 [Compound 27, 2-[(3-{[4-({2-[2-(2-methoxyethoxy)ethoxy]ethyl}amino)phenyl]ethynyl}-1H-indazol-6-yl)thio]-N-methylbenzamide] | 1.62 ± 0.68 ng/g | significantly higher | 0.48 µg/mL (≈ 0.881 µM) | 1.2 nM | – | – |
| CNC(=O)c1ccccc1Sc1ccc2c(C#Cc3ccccn3)n[nH]c2c1 [Compound B, 6-[2-(methylcarbamoyl)phenylsulfanyl]-3-[2-(pyridine-2-yl)ethynyl]indazole, reference compound] | 0.51 ± 0.1 ng/g | – | 0.084 µg/mL (≈ 0.218 µM) | 1.6 nM | – | – |
| CNC(=O)c1ccccc1Sc1ccc2c(C#Cc3ccc(NC(=O)NCCOCCOCCOC)cc3)n[nH]c2c1 [Compound 8, 2-[(3-{[4-(3-{2-[2-(2-methoxyethoxy)ethoxy]ethyl}ureido)phenyl]ethynyl}-1H-indazol-6-yl)thio]-N-methylbenzamide] | 2.6 ± 1.04 ng/g | significantly higher | 1 µg/mL (≈ 1.7 µM) | 1.2 nM | – | – |
| CNC(=O)c1ccccc1Sc1ccc2c(/C=C/c3ccccn3)n[nH]c2c1 [Compound A, 6-[2-(methylcarbamoyl)phenylsulfanyl]-3-E-[2-(pyridine-2-yl)ethenyl]indazole, reference compound] | – | – | 0.045 µg/mL (≈ 0.116 µM) | – | low | poor photostability |
